The values that follow come from patent US20240425464A1, “Substituted Monohydrazides as Potent Antifungal Agents” (University of Kentucky Research Foundation, priority 2023, published 2024).

What is called MIC is the smallest concentration in the dilution series that meets the test's criterion for growth inhibition.

Experiment [1] deals with Candida auris strain AR Bank #384 (K). Briefly: MIC determination by in vitro antifungal assay. It is filed as cell-based. As to conditions: Candidozyma auris, C. auris AR Bank # 384 (K) (Table 2B); read-out: MIC. On the procedure: (§1) The antifungal agent amphotericin B (AmB) was purchased from VWR (Radnor PA, USA). AmB was dissolved in DMSO at a final concentration of 5 mg/mL and was stored at −20° C., protected from light. Candida albicans American Type Culture Collection (ATCC) 10231 (strain A), C. albicans ATCC 64124 (B), and C. albicans ATCC MYA-2876 (C) were obtained from Utah State University. C. albicans ATCC 90819 (D), C. albicans ATCC MYA-2310 (E), C. albicans ATCC MYA-1237 (F), C. albicans ATCC MYA-1003 (G), Candida glabrata ATCC 2001 (H), Candida krusei ATCC 6258 (I), Candida parapsilosis ATCC 22019 (J), Cryptococcus neoformans ATCC MYA-895 (M), Aspergillus terreus ATCC MYA-3633 (N), and Aspergillus flavus ATCC MYA-3631 (0) were obtained from the American Type Culture Collection (ATCC; Manassas, VA, USA). Aspergillus nidulans ATCC 38163 (P) was obtained from University of Kentucky. Clinically derived Aspergillus fumigatus NRRL 163 (Q), A. fumigatus NRRL 5109 (R), and A. fumigatus NRRL 6113 (S) were obtained from Northern Regional Research Laboratory (NRRL). Candida auris 384 (K), C. auris 390 (L), and fungal strains 381-400 (including 10 C. auris (AR Bank #381-390), 3 Candida duobushaemulonii (AR Bank #391, AR Bank #392, and AR Bank #394), 2 Candida haemulonii (AR Bank #393 and AR Bank #395), 1 Kodameae ohmeri (AR Bank #396), 1 C. krusei (AR Bank #397), 1 Candida lusitaniae (AR Bank #398), and 2 Saccharomyces cerevisiae strains (AR Bank #399 and AR Bank #400)) were part of a larger fungal library from the AR Bank maintained by the Centers for Disease Control and Prevention (CDC; Atlanta, GA, USA). Filamentous fungi and yeasts were cultivated at 35° C. in RPMI 1640 medium (with L-glutamine, without sodium bicarbonate, Sigma-Aldrich, St. Louis, MO) buffered to a pH of 7.0 with 0.165 M morpholinepropanesulfonic acid (MOPS) buffer (Sigma-Aldrich). For cytotoxicity assays, HepG2 and the mouse macrophage cell line J774A.1 were obtained from University of Kentucky. The human embryonic kidney cell line, HEK-293, was bought from the ATCC. Mammalian cells were grown in Dulbecco's Modified Eagle's Medium (DMEM) (from VWR) with 10% fetal bovine serum (FBS) (from VWR) and 1% Pen/Strep (from ATCC). Cell lines were cultured at 37° C. with 5% CO2 and passaged by trypsinization with 0.05% trypsin: 0.53 mM EDTA (from Sigma-Aldrich).
(§2) From the actively growing yeast culture, 100 µL were then transferred to 900 μL of RPMI 1640 medium and re-adjusted to achieve OD600 of 0.12 (˜1×10^6 CFU/mL). The cell suspension was further diluted to achieve 1:100 in RPMI 1640 medium.
(§3) Finally, the activity of these monohydrazides was explored against […] non-Candida strains: Cryptococcus neoformans ATCC MYA-895 (M), Aspergillus terreus ATCC MYA-3633 (N), Aspergillus flavus ATCC MYA-3631 (O), Aspergillus nidulans ATCC 38163 (P), Aspergillus fumigatus NRRL 163 (Q), A. fumigatus NRRL 5109 (R), and A. fumigatus NRRL 6113 (S) (Tables 1A and 1B). The double dilution method was used with concentrations ranging from 0.06 to 31.3 j·tg mL^−1 for monohydrazides 1a-9j, and the commercially available positive antifungal control amphotericin B (AmB).

For experiment [2], the system named is C. auris strain AR Bank #390 (L). Nature of the experiment: MIC determination by in vitro antifungal assay. As to conditions: Candidozyma auris, C. auris AR Bank # 390 (L) (Table 2B); read-out: MIC. It is filed as cell-based, Candida auris. How it is done:
as §1, §2, §3

A further experiment concerns C. auris AR Bank #388. Briefly: MIC determination by in vitro antifungal assay. The experiment is classed as cell-based, Candida auris. The note with it: Candidozyma auris; C. auris AR Bank # 388 (Table 2B); read-out: MIC. On the procedure:
as §1, §2

The test system of the next experiment is C. auris AR Bank #385. Briefly: MIC determination by in vitro antifungal assay. The experiment is classed as cell-based, Candida auris. The note with it: Candidozyma auris; C. auris AR Bank # 385 (Table 2B); read-out: MIC. How it is done: as §1, §2
The subject of another experiment is C. auris AR Bank #386. Nature of the experiment: MIC determination by in vitro antifungal assay. The note with it: Candidozyma auris; C. auris AR Bank # 386 (Table 2B); read-out: MIC. It is filed as cell-based, Candida auris. On the procedure:
as §1, §2

For a further experiment, the system named is C. auris AR Bank #382. Briefly: MIC determination by in vitro antifungal assay. It is filed as cell-based, Candida auris. The note with it: Candidozyma auris; C. auris AR Bank # 382 (Table 2B); read-out: MIC. On the procedure:
as §1, §2

For a further experiment, the system named is C. auris AR Bank #389. Briefly: MIC determination by in vitro antifungal assay. It is filed as cell-based, Candida auris. As to conditions: Candidozyma auris; C. auris AR Bank # 389 (Table 2B); read-out: MIC. How it is done:
as §1, §2

The test system of another experiment is C. auris AR Bank #383. Briefly: MIC determination by in vitro antifungal assay. The experiment is classed as cell-based, Candida auris. As to conditions: Candidozyma auris; C. auris AR Bank # 383 (Table 2B); read-out: MIC. How it is done: as §1, §2
Another experiment has as its system C. auris AR Bank #381. Nature of the experiment: MIC determination by in vitro antifungal assay. The experiment is classed as cell-based, Candida auris. As to conditions: Candidozyma auris; C. auris AR Bank # 381 (Table 2B); read-out: MIC. How it is done: as §1, §2
The next experiment has as its system C. auris AR Bank #387. Briefly: MIC determination by in vitro antifungal assay. The experiment is classed as cell-based, Candida auris. As to conditions: Candidozyma auris; C. auris AR Bank # 387 (Table 2B); read-out: MIC. How it is done:
as §1, §2

The subject of experiment [3] is panel of ten C. auris strains (AR Bank #381-390). Briefly: MIC determination, summary over the C. auris panel. It is filed as cell-based, Candida auris. The note with it: Candidozyma auris; against all ten C. auris strains tested (AR Bank #381-390). On the procedure: as §1, §2

In brackets after ≈: the same amount, converted by molar mass.

Turning to `COc1cccc(NNC(=O)c2cccc(F)n2)c1` [Compound 5c], the MIC stood at 0.49 µg/mL (≈ 1.88 µM) in [1]; 3.9 µg/mL (≈ 14.9 µM) in [2]; 0.98 µg/mL (≈ 3.75 µM) with C. auris AR Bank #388; 0.98 µg/mL (≈ 3.75 µM) in the experiment on C. auris AR Bank #385; 0.98 µg/mL (≈ 3.75 µM) in the experiment on C. auris AR Bank #386; 0.49 µg/mL (≈ 1.88 µM) with C. auris AR Bank #382. Besides, the minimal inhibitory concentration (MIC) with C. auris AR Bank #389 is 0.98 µg/mL (≈ 3.75 µM); with C. auris AR Bank #383, 1.95 µg/mL (≈ 7.46 µM); in the experiment with C. auris AR Bank #381, 0.98 µg/mL (≈ 3.75 µM); in the experiment on C. auris AR Bank #387, 0.49 µg/mL (≈ 1.88 µM); in [3], 0.12 to 7.8 µg/mL (≈ 0.459 to 29.9 µM).
